Results published in patent US20240366638A1, “[…] FOR TREATING PSY[…]” (SYNAPTIVE THERAPEUTICS LLC, priority 2021, published 2024).
Entries after “also recorded” stand apart in the source; their conditions may differ.

How the values were obtained:
male C57BL/6 mice [1] = assay: Elevated plus maze (EPM), time on open arms; type: in vivo; set-up: key to EPM: ↓ = decrease; ↑ = increase; neg = negative; pos = positive; ns = not statistically significant; settings: for EPM: summary of effect on behavior (time on open arms), doses tested IP; for Time spent on the open arms of the EPM, statistical comparison between groups: various doses IP, 5 minutes, one-way ANOVA with Tukey's test, diazepam positive control
Procedure: (§1) The elevated plus maze (EPM) is a behavioral assay that measures anxiety in rodents. The apparatus is composed of open and closed arms arranged in a “plus” measuring, 35 cm arm length; 5 cm arm width; 20 cm wall height and stands 61 cm height. Each mouse was placed on the maze within the center area facing towards an open arm and allowed to explore the EPM for 5 minutes. The experimenter observed the mouse from outside the test room through an observational window. Behavior was recorded via a digital camera mounted above the maze. The apparatus was cleaned with Peroxigard wipes after each trial.
(§2) Statistical analysis. Data were analyzed using a one-way ANOVA with drug dose as the primary factor. Post-hoc multiple comparison analysis was performed following significant main effects using Tukey's multiple comparisons test (GraphPad Prism 9.2.0). Statistical significance was set at P<0.05.
(§3) Results. A total of 170 male C57BL/6 mice were used for this study (see TABLE 3.). One mouse in the diazepam group died of unknown causes. Another mouse developed a skin condition in the aeruginascin (1.0 mg/kg) group and was excluded from the FST test. All other test groups consisted of N=10 per group. Statistical comparisons are noted in each figure legend.

male C57BL/6 mice [2] = assay: Open field test (OFT), locomotor activity; type: in vivo; set-up: key to OFT: ↓ = decrease; ↑ = increase; neg = negative; pos = positive; ns = not statistically significant; settings: for OFT: summary of effect on overall locomotor activity, doses tested IP, mice; for Locomotor activity in the open field, statistical comparison between groups: various doses IP, 30 min period, one-way ANOVA with Tukey's test, diazepam positive control
Procedure: (§4) Methods. The open field test (OFT) was conducted by placing a mouse in a gray chamber 40×40 cm of 30 cm height and allowed to explore at will for 30 minutes. A digital camera positioned above the chamber recorded behavior. Animals that spend more time in the center (open area) compared to along the walls (thigmotaxis) are deemed less anxious. The open field apparatus was cleaned with Peroxigard wipes after each use.
as §2, §3

male C57BL/6 mice [3] = assay: Open field test (OFT), time in center zone; type: in vivo; set-up: key to OFT (center time): ↓ = decrease; ↑ = increase; neg = negative; pos = positive; ns = not statistically significant; settings: for OFT (center time): summary of effect on behavior, doses tested IP; for Time in the center zone of the open field chamber, statistical comparison between groups: various doses IP, 30 min period, one-way ANOVA with Tukey's test, diazepam positive control
Procedure: as §4, §2, §3

male C57BL/6 mice [4] = assay: Tail suspension test (TST); type: in vivo; settings: for TST: summary of effect on behavior, doses tested IP, mice; for Tail suspension test activity (time immobile), statistical comparison between groups: various doses IP, 6 minutes, one-way ANOVA with Tukey's test, ketamine positive control
Procedure: (§5) The tail-suspension test (TST) is a model of depression and has been used to screen prospective antidepressant compounds. It involves suspending mice above the ground by their tails with tape for a predetermined time. A 17 cm piece of tape was taped to the tail (2 cm of the 17 cm) of each mouse and then attached to a metal shelf for 6 minutes. Each mouse was digitally recorded and data analyzed using specialized software with particular focus on time immobile. After the trial, tape was removed and mice returned to their home cage.
as §2, §3

male C57BL/6 mice [5] = assay: Animal models of anxiety and depression in mice, overall (OFT, EPM, TST, FST); type: in vivo; settings: IP, FST taken together
Procedure: Summary. The goal of the present project was to assess psilocybin metabolites in animal models of anxiety and depression in mice. Specifically, baeocystin (0.3 mg/kg-30 mg/kg), norbaeocystin (0.3-3.0 mg/kg), aeruginascin (0.3-3.0 mg/kg) and norpsilocin (0.3-3.0 mg/kg) were tested in the open field test (OFT), elevated plus maze (EPM), tail suspension test (TST) and forced swim test (FST). Overall, most compounds were ineffective and/or increased negative behaviors.
as §4, §1, §5
The forced swim test is a classic behavioral assay to test for depressive behavior such as immobility. The apparatus is composed of a Plexiglas cylinder measuring (20 cm diameter, 45 cm height) that is filled with water maintained at room temperature (23-25 C). During testing, mice were placed into the water by the nape of the neck facing the wall and released and behavior recorded via a digital camera for 6 minutes. After the test, mice were dried off with a towel and placed in their home cage in which half is heated by a heating pad placed underneath the cage. Fecal matter was removed after every test. Water was changed after 10 mice were run in each cylinder. […]
Statistical analysis. Data were analyzed using a one-way ANOVA with drug dose as the primary factor. […]

male C57BL/6 mice [6] = assay: Forced swim test (FST); type: in vivo; set-up: key to FST: ↓ = decrease; ↑ = increase; neg = negative; pos = positive; ns = not statistically significant; settings: for FST: summary of effect on behavior, doses tested IP, mice; for Forced swim test activity, statistical comparison between groups: various doses IP, 6 minutes, one-way ANOVA with Tukey's test, ketamine positive control
Procedure: The forced swim test is a classic behavioral assay to test for depressive behavior such as immobility. The apparatus is composed of a Plexiglas cylinder measuring (20 cm diameter, 45 cm height) that is filled with water maintained at room temperature (23-25 C). During testing, mice were placed into the water by the nape of the neck facing the wall and released and behavior recorded via a digital camera for 6 minutes. After the test, mice were dried off with a towel and placed in their home cage in which half is heated by a heating pad placed underneath the cage. Fecal matter was removed after every test. Water was changed after 10 mice were run in each cylinder. After the completion of the experiment, water was drained and the cylinder cleaned with Peroxigard wipes.
as §2, §3

[7] = cited from earlier work

Compound | EPM (male C57BL/6 mice [1]; mice) | Time spent on the open arms of the EPM, statistical comparison between groups (male C57BL/6 mice [1]) | OFT (male C57BL/6 mice [2]) | Locomotor activity in the open field, statistical comparison between groups (male C57BL/6 mice [2]) | OFT (center time) (male C57BL/6 mice [3]; mice) | Time in the center zone of the open field chamber, statistical comparison between groups (male C57BL/6 mice [3]) | TST (male C57BL/6 mice [4]) | Tail suspension test activity (time immobile), statistical comparison between groups (male C57BL/6 mice [4]) | Overall effect across behavioral tests of anxiety and depression (male C57BL/6 mice [5]) | FST (male C57BL/6 mice [6]) | Forced swim test activity, statistical comparison between groups (male C57BL/6 mice [6]) | Time spent in the center zone in the OFT (male C57BL/6 mice [3]; 3.0 mg/kg, IP, mice) | Time spent on the open arms in the EPM (male C57BL/6 mice [1]; 10 mg/kg, IP, mice) | Time spent on the open arm in the EPM (male C57BL/6 mice [1]; 30 mg/kg (highest dose), IP, mice) | Hallucinogenic effect in a self-administered assay ([7]; 4 mg of baeocystin, Gartz research paper) | Psychoactivity in humans compared with psilocybin ([7]; 10 mg of baeocystin, study reported by Gartz)
NCCc1c[nH]c2cccc(OP(=O)(O)O)c12 [Norbaeocystin] | ns | no differences between groups | ns | a trend towards a difference between norbaeocystin 1.0 vs. 3.0 mg/kg | ↓ (neg) | significant difference between diazepam and the highest dose of norbeaocystin | ↑ (neg) | significant differences between saline and ketamine and all doses of norbaeocystin | either produced no significant effect or a significant negative impact across all behavioral tests | ns | no significant differences between groups |  |  |  |  | 
CNCCc1c[nH]c2cccc(O)c12 [Norpsilocin] | ns | no differences between groups | ↓ (neg) | significant differences between diazepam and norpsilocin 1.0 and 3.0 mg/kg | ↑ (pos) | significantly increased time spent in the center zone of the OFT; also recorded: highly significant differences between the highest dose of norpsilocin and all other groups | ↑ (neg) | significant differences between ketamine and all doses of norpsilocin | can exert anxiolytic effects in mice using certain behavioral procedures; also recorded: have anxiolytic activity and no harmful psychoactive effects, including no depressive activity | ns | no differences between any groups | the only compound that increased time spent in the center zone in the OFT and this effect was highly significant |  |  |  | 
C[N+](C)(C)CCc1c[nH]c2cccc(OP(=O)(O)O)c12 [Aeruginascin] | ns | no differences between groups | ↓ (neg) | significant difference between aeruginascin 0.3 and 1.0 mg/kg | ns | no significant differences between groups | ↑ (neg) | significant differences between saline and ketamine and all doses of aeruginascin | either produced no significant effect or a significant negative impact across all behavioral tests | ↑ (neg) | significant differences between ketamine and aeruginascin 0.3 and 3.0 mg/kg doses |  |  |  |  | 
CNCCc1c[nH]c2cccc(OP(=O)(O)O)c12 [Baeocystin] | ↑ (pos) | the highest dose of baeocystine increased time spent on the open arm compared to saline | ↓ (neg) | significant differences between the highest dose of baeocystin and all other groups | ns | no significant difference between groups | ↑ (neg) | significant differences between the two highest doses of baeocystin and other groups | can exert anxiolytic effects in mice using certain behavioral procedures; also recorded: have anxiolytic activity and no harmful psychoactive effects, including no depressive activity | ns | no significant differences between groups |  | tended to increase time spent on the open arms however, this did not reach statistical significance | significantly increased time spent on the open arm | a gentle hallucinogenic experience | about as psychoactive as a similar amount of psilocybin
